Data as given in PubChem BioAssay AID1918958 (Molecular Pharmacology Branch, DTP, NCI, 2023).

System: NCI-H196 complex spheroid viability
Test: Anticancer human tumor NCI-H196 cell line growth inhibition [LSD1];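 note: spheroids exposed to agents for 7 days before readout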;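 for viability, T/C: 100% = DMSO vehicle control viability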
Details: for IC50: curve of first compound; for viability, T/C: stronger effect = lower value
Source text: Multicellular complex tumor spheroid response to LSD1 Inhibitor Iadademstat in combination with a variety of drugs and investigational agents in selected tumor cell lines
The current study was undertaken to assess response to LSD1 inhibitors in combination with standard-of-care drugs and investigational agents in solid tumor complex spheroid models as well as in the K-562 leukemia. Complex spheroids include a stromal component modeled by human endothelial cells (HUVEC) and fibroblasts modeled by human mesenchymal stem cells (MSCs). The concentration ranges selected for each drug and investigational agent were based upon clinically achievable concentrations if the clinical Cmax of the agent was known.
Compounds. The drugs and investigational agents used in this study are listed on Table 1. All of the agents used, including staurosporine (NSC755774) and gemcitabine (NSC613327), were obtained from the Developmental Therapeutics Program, NCI. FDA-approved anticancer drugs are available from the NCI at http://dtp.nci.nih.gov/branches/dscb/oncology_drugset_explanation.html. Drugs and investigational agents were >95% pure by proton nuclear magnetic resonance (NMR) and liquid chromatography/mass spectrometry (LC/MS). Stock solutions were prepared at 400x in DMSO, stored at -70 degrees C, and diluted in fresh medium prior to their use. The final concentration of DMSO in cell culture wells never exceeded 0.25% (v/v). The FDA-approved anticancer drug set is available from the Developmental Therapeutics Program at https://dtp.cancer.gov/organization/dscb/obtaining/available_plates.htm. All drugs and investigational agents were tested over a range starting from a high concentration at or near the clinical Cmax and decreasing in half-log increments. If the clinical Cmax for an agent had not been determined, the highest concentration tested was 10 microM.
Cell Lines. The patient-derived cancer cell (PDC) lines: 292921-168-R-J2-PDC, K24384-001-R-PDC, and 521955-158-R2-J5-PDC pancreatic carcinomas, 556581-035-R-J1 ovarian carcinoma, 324938-238-R-J1-PDC, 855422-203-R-J1-PDC and 883617-216-R-J1-PDC urothelial bladder carcinomas, 743489-274-T-PDC renal cell carcinoma, 138582-R-J1 Merkel cell tumor, K60290-347-R-J1 and K57222-313-R-J1-PDC glioblastomas, 653999-131-R-J2-PDC, LG0703-F948-PDC, and 349418-098-R-PDC non-small cell lung carcinomas, 885512-296-R-J2-PDC, 171881-019-R-J1-PDC breast carcinomas and 186277-243-T-J2-PDC and 233499-124-R-J2-PDC colon carcinomas were obtained from the NCI Patient-Derived Models Repository (PDMR, https://pdmr.cancer.gov). The established cell lines NCI/ADR-RES (RRID:CVCL_14520 and OVCAR-5 (RRID:CVCL_1628) ovarian carcinomas, 786-O (RRID:CVCL_1051) and A498 (RRID:CVCL_A498) renal cell carcinoma, NCI-H211 (ATCC, cat. CRL-5824; RRID:CVCL_1529), NCI-H196 (ATCC, cat. CRL-5823, RRID:CVCL_1509), SW 1271 (ATCC, cat. CRL-2177, RRID:CVCL_1716) and NCI-H1876 (ATCC, cat. CRL-5902, RRID:CVCL_1503) small cell lung carcinomas, MDA-MB-231 (RRID:CVCL_0062) and MDA-MB-468 (RRID:CVCL_0419)breast carcinomas (10-12). Pooled donor human umbilical vein endothelial cells (HUVEC, Lonza, cat. CC-2519) and human mesenchymal stem cells (hMSC, Lonza, cat. PT-2501) were purchased from Lonza (Walkersville, MD).
Cell Culture. All cells were maintained in an incubator at 37 degrees C and 5% CO2 with 95% humidity. The PDC lines were cultured according to standard operating procedures established by the NCI PDMR (https://pdmr.cancer.gov). Briefly all PDCs were thawed and cultured in Matrigel-coated flasks prepared with a working solution of 1X Ham's F-12 nutrient mix, without supplementation (Invitrogen, Waltham, MA, cat. 11765054), 100 U/mL penicillin-streptomycin (Invitrogen, cat. 15140122), and 2.5% Matrigel (Corning Inc., Corning, NY, cat. 354248) for the first three passages. […]

In the case of `Nc1ncn(C2CC(O)C(CO)O2)c(=O)n1` (stereo not given) + NC1CCC(NC2CC2c2ccccc2)CC1, the IC50 (second compound 0.1 µM) is reported as greater than 1000 nM, the IC50 (second compound 0.316 µM) is reported as greater than 1000 nM and the IC50 (second compound 1 µM) is reported as greater than 1000 nM. It also gave an IC50 (second compound 3.16 µM) greater than 1000 nM, an IC50 (second compound 10 µM) greater than 1000 nM and a viability, T/C (second compound 0.1 µM, first compound 0.00316 µM) of 94.3%. It also gave a viability, T/C (second compound 0.1 µM, first compound 0.01 µM) of 96.1%, a viability, T/C (second compound 0.1 µM, first compound 0.0316 µM) of 96.1% and a viability, T/C (second compound 0.1 µM, first compound 0.1 µM) of 92.5%. It also gave a viability, T/C (second compound 0.1 µM, first compound 0.316 µM) of 93.3%, a viability, T/C (second compound 0.1 µM, first compound 1 µM) of 93% and a viability, T/C (second compound 0.316 µM, first compound 0.00316 µM) of 91%. For the same molecule, the viability, T/C (second compound 0.316 µM, first compound 0.01 µM) was 97.4%, the viability, T/C (second compound 0.316 µM, first compound 0.0316 µM) was 114% and the viability, T/C (second compound 0.316 µM, first compound 0.1 µM) was 96.7%. The viability, T/C (second compound 0.316 µM, first compound 0.316 µM) was 96.9%, the viability, T/C (second compound 0.316 µM, first compound 1 µM) was 99.3% and the viability, T/C (second compound 1 µM, first compound 0.00316 µM) was 87.8%. For the same molecule, the viability, T/C (second compound 1 µM, first compound 0.01 µM) was 94.9%, the viability, T/C (second compound 1 µM, first compound 0.0316 µM) was 94.9% and the viability, T/C (second compound 1 µM, first compound 0.1 µM) was 88.5%. It also gave a viability, T/C (second compound 1 µM, first compound 0.316 µM) of 93.8%, a viability, T/C (second compound 1 µM, first compound 1 µM) of 101% and a viability, T/C (second compound 3.16 µM, first compound 0.00316 µM) of 94.5%. It also gave a viability, T/C (second compound 3.16 µM, first compound 0.01 µM) of 95.8%, a viability, T/C (second compound 3.16 µM, first compound 0.0316 µM) of 99.2% and a viability, T/C (second compound 3.16 µM, first compound 0.1 µM) of 89.6%. It also gave a viability, T/C (second compound 3.16 µM, first compound 0.316 µM) of 87.1%, a viability, T/C (second compound 3.16 µM, first compound 1 µM) of 91.2% and a viability, T/C (second compound 10 µM, first compound 0.00316 µM) of 91.2%. The viability, T/C (second compound 10 µM, first compound 0.01 µM) was 94.8%, the viability, T/C (second compound 10 µM, first compound 0.0316 µM) was 91.2% and the viability, T/C (second compound 10 µM, first compound 0.1 µM) was 87.5%. The viability, T/C (second compound 10 µM, first compound 0.316 µM) was 92.9% and the viability, T/C (second compound 10 µM, first compound 1 µM) was 91.3%.

With `Nc1ccccc1NC(=O)c1ccc(CNC(=O)OCc2cccnc2)cc1` + NC1CC1c1ccc(-c2cccc(O)c2)cc1 the IC50 (second compound 0.1 µM) was 57.8 nM, the IC50 (second compound 0.316 µM) was 63 nM and the IC50 (second compound 1 µM) was 63.6 nM. The IC50 (second compound 3.16 µM) was 67.7 nM, the IC50 (second compound 10 µM) was 104 nM and the viability, T/C (second compound 0.1 µM, first compound 0.00949 µM) was 77.6%. The viability, T/C (second compound 0.1 µM, first compound 0.03 µM) was 66.3%, the viability, T/C (second compound 0.1 µM, first compound 0.0949 µM) was 37.7% and the viability, T/C (second compound 0.1 µM, first compound 0.3 µM) was 5.54%. It also gave a viability, T/C (second compound 0.1 µM, first compound 0.949 µM) of 0.32%, a viability, T/C (second compound 0.1 µM, first compound 3 µM) of 0.4% and a viability, T/C (second compound 0.316 µM, first compound 0.00949 µM) of 78.8%. The viability, T/C (second compound 0.316 µM, first compound 0.03 µM) was 65.5%, the viability, T/C (second compound 0.316 µM, first compound 0.0949 µM) was 42% and the viability, T/C (second compound 0.316 µM, first compound 0.3 µM) was 7.37%. For the same molecule, the viability, T/C (second compound 0.316 µM, first compound 0.949 µM) was 0.32%, the viability, T/C (second compound 0.316 µM, first compound 3 µM) was 0.32% and the viability, T/C (second compound 1 µM, first compound 0.00949 µM) was 80.2%. The viability, T/C (second compound 1 µM, first compound 0.03 µM) was 63.9%, the viability, T/C (second compound 1 µM, first compound 0.0949 µM) was 43.9% and the viability, T/C (second compound 1 µM, first compound 0.3 µM) was 8.12%. It also gave a viability, T/C (second compound 1 µM, first compound 0.949 µM) of 1.9%, a viability, T/C (second compound 1 µM, first compound 3 µM) of 0.59% and a viability, T/C (second compound 3.16 µM, first compound 0.00949 µM) of 79.5%. The viability, T/C (second compound 3.16 µM, first compound 0.03 µM) was 70.1%, the viability, T/C (second compound 3.16 µM, first compound 0.0949 µM) was 41.9% and the viability, T/C (second compound 3.16 µM, first compound 0.3 µM) was 7.06%. For the same molecule, the viability, T/C (second compound 3.16 µM, first compound 0.949 µM) was 0.28%, the viability, T/C (second compound 3.16 µM, first compound 3 µM) was 0.39% and the viability, T/C (second compound 10 µM, first compound 0.00949 µM) was 82.2%. The viability, T/C (second compound 10 µM, first compound 0.03 µM) was 70.6%, the viability, T/C (second compound 10 µM, first compound 0.0949 µM) was 55% and the viability, T/C (second compound 10 µM, first compound 0.3 µM) was 10.2%. For the same molecule, the viability, T/C (second compound 10 µM, first compound 0.949 µM) was 0.92% and the viability, T/C (second compound 10 µM, first compound 3 µM) was 0.55%.
